Data from US20150045322A1, “COMBINATION TREATMENT COMPRISING SULPHATED GLYCOSAMINOGLYCANS FOR INDUCING LABOR” (DILAFOR AB, priority 2012, published 2015).
Positions of bridges follow the written chain, without caps; N, C: chain ends. Non-standard residues stand in square brackets, D forms with d. Residues, ends and D or L forms follow the SMILES beside them. Orn = NCCC[C@H](N)C(=O)O; Mpa = O=C(O)CCS

Assays:
[1] = tested on: Human uterine smooth muscle cells; assay: Intracellular Ca2+ with Fluo-4 and confocal live cell imaging; format: cell-based
Source text: Human uterine smooth muscle cells were established in a culture. A method to measuring intracellular Ca^2+ with the calcium indicator dye Fluo-4 and live cell imaging with confocal microscopy was established for the cells.

[2] = comparison value for heparin, species not stated; cited from earlier work

Molecule: NCCOB(c1ccccc1)c1ccccc1 [2-APB, 2-Aminoethoxydiphenyl borate]
- effect on oxytocin and oxytocin/DF01 stimulated Ca2+-transport ([1]; 100 μM, 30 min of incubation): decreased strongly

Molecule: CCOc1ccc(C[C@H]2NC(=O)CCSSC[C@@H](C(=O)N3CCC[C@H]3C(=O)N[C@@H](CCCN)C(=O)NCC(N)=O)NC(=O)[C@H](CC(N)=O)NC(=O)[C@H]([C@@H](C)O)NC(=O)[C@H]([C@@H](C)CC)NC2=O)cc1 [Atosiban] ([Mpa][dY](Et)ITNCP[Orn]G-NH2; disulfide 1-6)
- effect on Ca2+ transport by oxytocin and the combination oxytocin/DF01 ([1]; 10^−6 M): clearly inhibited

Molecule: CC[C@H](C)[C@@H]1NC(=O)[C@H](Cc2ccc(O)cc2)NC(=O)[C@@H](N)CSSC[C@@H](C(=O)N2CCC[C@H]2C(=O)N[C@@H](CC(C)C)C(=O)NCC(N)=O)NC(=O)[C@H](CC(N)=O)NC(=O)[C@H](CCC(N)=O)NC1=O [oxytocin]
- concentration giving maximum effect on Ca2+-influx to the cytosol ([1]; dose-dependent effect): 0.05 IU/ml

Molecule: heparin
- corresponding (subcutaneous) bioavailability [2]: about 10%
